Data from US5627191A, “Therapeutic agents” (The Boots Company PLC, priority 1992, dated 1997).
Structures can show the parent of a compound that is named as a salt.

What was measured:
[1] = target: T1, adrenal membrane angiotensin II receptor (Oryctolagus cuniculus, UniProt P34976); test: Test A: binding affinity to the adrenal membrane angiotensin II receptor in vitro; parameters: species or system rabbit (male New Zealand white); settings: rabbit adrenal membranes, 0.05 nM [^125 I]angiotensin II, 60 minutes at 25° C.; read-out: Ki from Test A
T1 construct: Aliquots of rabbit adrenal membranes containing 10-30 μg protein were incubated; from tissue; host or cells: adrenal gland membranes of male New Zealand white rabbits
T1 sequence (P34976 1-359): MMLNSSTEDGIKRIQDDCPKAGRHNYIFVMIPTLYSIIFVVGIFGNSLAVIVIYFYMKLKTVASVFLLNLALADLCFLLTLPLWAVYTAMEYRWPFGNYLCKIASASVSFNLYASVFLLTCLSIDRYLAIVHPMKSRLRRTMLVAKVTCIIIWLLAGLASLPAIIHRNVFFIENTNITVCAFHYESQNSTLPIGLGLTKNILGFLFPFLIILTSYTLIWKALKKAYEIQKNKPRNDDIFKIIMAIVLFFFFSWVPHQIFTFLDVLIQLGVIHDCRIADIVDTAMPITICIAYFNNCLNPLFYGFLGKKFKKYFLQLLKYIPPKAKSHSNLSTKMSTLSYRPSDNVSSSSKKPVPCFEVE
Description: In test A the binding affinity of compounds to the adrenal membrane angiotensin II receptor was determined in vitro and in tests B and C the antihypertensive effect of the compounds was measured in vivo. A detailed description of the tests follows. Test A 1) Preparation of Membranes Adrenal glands from male New Zealand white rabbits were homogenised on ice in 20 mM aqueous sodium bicarbonate solution containing 50 μM PMSF (phenylmethanesulphonyl fluoride) (2 ml/g wet weight) using a Polytron (Trademark) homogeniser for 3×15 seconds at setting 8. The homogenate was centrifuged at 900 g for 10 minutes at 4° C. and the pellet was discarded. The supernatant was recentrifuged at 30000 g for 30 minutes at 4° C., and the resulting pellet was resuspended in assay buffer (50 mM Tris-HCl, pH 7.4, containing 1 mM EDTA, 6.5 mM MgCl2, 125 mM NACl, 50 μM PMSF, 5 μg/ml pepstatin and 50 μg/ml each of leupeptin, antipain, aprotinin and chymostatin): 10 ml per g original tissue wet weight. Polyethylene glycol was added (final concentration 30%) as a cryopreservant and the membrane preparation divided into aliquots and stored at -80° C. until required. Protein was determined by a modification of the method of Lowry (Markwell et al, (1978) Anal. Biochem., 87: 206-210). 2) Binding Assay Aliquots of rabbit adrenal membranes containing 10-30 μg protein were incubated with 0.05 nM [^125 I]angiotensin II in the presence or absence of potential angiotensin II antagonists in 1 ml polyamide tubes in a total volume of 200 μI assay buffer. After incubation for 60 minutes am 25° C. the reaction was terminated by the addition of ice-cold assay buffer, and the bound and free radioactivity was separated through Skatron (Trademark) receptor-binding filters, pre-wetted with assay buffer, using a Skatron cell harvester. The filters were washed with ice-cold phosphate buffered saline, dried, and the trapped radioactivity was determined using a gamma counter. Non-specific binding, measured in the presence of 2 μM unlabelled angiotensin II, was subtracted from total binding to obtain specific binding. Radioligand binding curves were analysed using EBDA and LIGAND (Cambridge Biosoft). Values for binding affinity were obtained by nonlinear regression analysis of untransformed data. The activities of the compounds described in the Examples given hereinafter are set out below in Table A, Column 1.

[2] = system: Aoki-Okamoto strain of spontaneously hypertensive rat; test: Test C: oral antihypertensive effect after pretreatment with bendrofluazide, threshold dose; format: in vivo; settings: pretreated with bendrofluazide 10 mg/kg at 16 hours and 2 hours prior to dose
Description: (§1) In test A the binding affinity of compounds to the adrenal membrane angiotensin II receptor was determined in vitro and in tests B and C the antihypertensive effect of the compounds was measured in vivo. A detailed description of the tests follows.
(§2) Female rats, weight range 180-240 g, of the Aoki-Okamoto strain of spontaneously hypertensive rat were used. The rats in groups of four were fasted overnight before administration of the test compound. Blood pressure was determined in the following way. The rats were placed in a cabinet kept at 38° C. with their tails protruding through holes in the cabinet. After 30 minutes in the cabinet blood pressure was measured using an inflatable cuff placed round the base of the mail and arterial pulsations monitored with a pneumatic pulse transducer. […] The pressure in the cuff at which arterial pulsations reappeared was taken as the blood pressure. The rats were removed from the cabinet and each group orally dosed with a given dose of the test compound given as a solution or suspension in 0.25% aqueous carboxymethylcellulose. In addition to the predose reading, blood pressure was measured at 1.5 and 5.0 hours after dosing. The degree of blood pressure reduction sufficient to achieve a significance level of p<0.01 compared to controls was 9% after correction for control changes at appropriate time intervals. Thus, compounds were considered to be active in this test if they produced a reduction of blood pressure after correction of 9% or greater than 9%.
(§3) Threshold antihypertensive doses of compounds of formula I were determined in the following way. Compounds were tested initially at a particular dose level, for example 90 mg/kg.
The procedure of Test B above was carried out subject to the modification of pretreating the rats with bendrofluazide 10 mg/kg (an orally administered diuretic) at 16 hours and 2 hours prior to the dose of the test compound, to ensure activation of the reninangiotensin system.
The activities of the compounds described in the Examples given hereinafter are set out below in Table A, Column 3.

[3] = system: Aoki-Okamoto strain of spontaneously hypertensive rat; test: Test B: oral antihypertensive effect, threshold dose; format: in vivo; settings: dose giving a reduction of blood pressure of between 9 and 16% after correction, 1.5 and 5.0 hours after dosing; for minimal effective dose: Rattus norvegicus, po, 5 h, read-out: Threshold anti-hypertensive dose from Test B
Description: as §1, §2, §3
The activities of the compounds described in the Examples given hereinafter are set out below in Table A, Column 2.

Row | Ki [1] [nM] | Structure (SMILES) | Threshold anti-hypertensive dose from Test C [2] [mg/kg] | minimal effective dose [3] [mg/kg] | Threshold anti-hypertensive dose from Test B [3] [mg/kg]
1 | 13.5 | CCCc1nc(CC)c(C=O)n1Cc1ccc(-c2ccccc2-c2c(O)c(=O)c2=O)cc1 [Example 15, 4-ethyl-1-[2'-(2-hydroxy-3,4-dioxocyclobut-1-en-1-yl)biphenyl-4-ylmethyl]-2-propyl-1H-imidazole-5-carboxaldehyde] | 3 | – | –
2 | 3.19 | CCCc1nc2c(C)cc(C)nc2n1Cc1ccc(-c2ccccc2-c2c(O)c(=O)c2=O)cc1 [Example 8, 3-[4'-(5 7-dimethyl-2-propyl-3H-imidazo[4,5-b]pyrid-3-ylmethyl)biphenyl-2-yl]-4-hydroxycyclobut-3-ene-1,2-dione] | < 10 | 10 | –
3 | 1.78 | CCc1nc2c(C)cc(C)nc2n1Cc1ccc(-c2ccccc2-c2c(O)c(=O)c2=O)cc1 (single isomer, unassigned) [Example 5, sodium salt of 3-[4'-(2-ethyl-5,7-dimethyl-3H-imidazo[4,5-b]pyrid-3-ylmethyl)biphenyl-2-yl]-4-hydroxycyclobut-3-ene-1,2-dione] | 1 | – | 1
4 | 3.68 | CCCCC1=NC2(CCCC2)C(=O)N1Cc1ccc(-c2ccccc2-c2c(O)c(=O)c2=O)cc1 [Example 22, 3-[4'-(2-butyl-5-oxo-2-imidazoline-4-spirocyclopent-1-ylmethyl)biphenyl-2-yl]-4-hydroxycyclobut-3-ene-1,2-dione] | 30 | – | –
5 | 11.1 | CCCCc1nc(Cl)c(C=O)n1Cc1ccc(-c2ccccc2-c2c(O)c(=O)c2=O)cc1 [Example 24, 2-butyl-4-chloro-1-[2'-(2-hydroxy-3,4-dioxocyclobut-1-en-1-yl)biphenyl-4-ylmethyl]-1H-imidazole-5-carboxaldehyde] | 3 | – | –
6 | 393 | CCc1nc2c(C)c(S(=O)(=O)N(C)C)c(C)nc2n1Cc1ccc(-c2ccccc2-c2c(O)c(=O)c2=O)cc1 [Example 11, 2-ethyl-3-[2'-(2-hydroxy-3,4-dioxocyclobut-1-en-1-yl)biphenyl-4-ylmethyl]-5,7, N,N-tetramethyl-3H-imidazo[4,5-b]pyridine-6-sulphonamide mono-ethyl acetate solvate] | – | – | –
7 | 13.3 | CCc1nc2c(C)c(Cl)c(C)nc2n1Cc1ccc(-c2ccccc2-c2c(O)c(=O)c2=O)cc1 [Example 12, 3-[4'-(6-chloro-2-ethyl-5,7-dimethyl-3H-imidazo-[4,5-b]pyrid-3-ylmethyl)biphenyl-2-yl]-4-hydroxy-cyclobut-3-ene-1,2-dione hydrochloride] | – | – | –
8 | 27.7 | CCCCc1nc(Cl)c(C(=O)OC)n1Cc1ccc(-c2ccccc2-c2c(O)c(=O)c2=O)cc1 [Example 28, methyl 2-butyl-4-chloro-1-[2'-(2-hydroxy-3,4-dioxo-cyclobut-1-en-1-yl)biphenyl-4-ylmethyl]-1H-imidazole-5-carboxylate] | 10 | – | –
9 | 5 | CCc1nc2c(C)cc(C)nc2n1Cc1ccc(-c2ccccc2-c2c(O)c(=O)c2=O)cc1 (single isomer, unassigned) [Example 4, 3-[4'-(2-ethyl-5,7-dimethyl-3H-imidazo[4,5-b]pyrid-3-ylmethyl)biphenyl-2-yl]-4-hydroxycyclobut-3-ene-1,2-dione] | 0.1 | – | 0.1
10 | 13.7 | CCCCc1nc(Cl)c(C(=O)O)n1Cc1ccc(-c2ccccc2-c2c(O)c(=O)c2=O)cc1 [Example 29, 2-butyl-4-chloro-1-[2'-(2-hydroxy-3,4-dioxocyclobut-1-en-1-yl)biphenyl-4-ylmethyl]-1H-imidazole-5-carboxylic acid 0.4 hydrochloride] | 3 | > 3 | –
11 | 97.6 | CCc1nc2c(C)cc(C)nc2n1Cc1ccc(-c2ccccc2-c2c(OC(C)C)c(=O)c2=O)cc1 [Example 1, 3-[4'-(2-ethyl-5,7-dimethyl-3H-imidazo[4,5-b]pyrid-3-ylmethyl)biphenyl-2-yl]-4-isopropoxycyclobut-3-ene-1,2-dione] | 30 | – | –
12 | 19 | CCc1nc2c(C)cc(C)nc2n1Cc1ccc(-c2ccccc2-c2c(OCOC(=O)C(C)(C)C)c(=O)c2=O)cc1 [Example 13, 2-[4'-(2-ethyl-5,7-dimethyl-3H-imidazo[4,5-b]pyrid-3-ylmethyl)biphenyl-2-yl]-3,4-dioxocyclobut-1-en-1-yloxymethyl pivalate] | < 10 | 10 | –
13 | 400 | CCc1nc2c(C)cc(C)nc2n1Cc1ccc(-c2ccccc2-c2c(N)c(=O)c2=O)cc1 [Example 6, 3-amino-4-[4'-(2-ethyl-5,7-dimethyl-3H-imidazo[4,5-b]pyrid-3-ylmethyl)biphenyl-2-yl]cyclobut-3-ene-1,2-dione] | – | – | –
14 | 77.9 | CCCCc1nc(Cl)c(/C=C(\Cc2ccccc2)C(=O)O)n1Cc1ccc(-c2c(O)c(=O)c2=O)cc1 [Example 30, (E)-2-benzyl-3-[2-butyl-4-chloro-1-[4-(2-hydroxy-3,4-dioxocyclobut-1-en-1-yl)benzyl]-1H-imidazol-5-yl]propenoic acid] | ≤ 10 | – | –
15 | 81.7 | CCCCN(Cc1ccc(-c2ccccc2-c2c(O)c(=O)c2=O)cc1)c1ncncc1C(=O)O [Example 20, 4-[N-butyl-N-[2'-(2-hydroxy-3,4-dioxocyclobut-1-en-1-yl)biphenyl-4-ylmethyl]amino]pyrimidine-5-carboxylicacid 0.6 hydrochloride] | 1 | 3 | –
16 | 3.71 | CCCc1nc2c(C)cc(C)nc2n1Cc1ccc(-c2ccccc2-c2c(O)c(=O)c2=O)cc1 [Example 9, sodium salt of 3-[4'-(5,7-dimethyl-2-propyl-3H-imidazo[4,5-b]-pyrid-3-ylmethyl)biphenyl-2-yl]-4-hydroxycyclobut-3-ene-1,2-dione] | 0.1 | – | 10
